# PMC2700083, “A covalent peptide inhibitor of RGS4 identified in a focused one-bead, one compound library screen” (BMC Pharmacology, 2009)
# Values joined by “and” are separate entries in the source; they are usually repeats but may differ in a detail not shown here. Identical values can stand only once. Like-named read-outs stand apart in the source and are kept apart here. Where a SMILES comes first, the peptide text is derived from it. Bridges are numbered along the chain shown (N, C = ends).
# Legend:
# [1] = target: T1, RGS19 (Homo sapiens, UniProt P49795); test: FCPIA, Gαo binding to RGS19; conditions: Figure 2
# T1 construct: RGS19ΔC11 (amino acids 1–209); made in house
# T1 sequence (P49795 1-209): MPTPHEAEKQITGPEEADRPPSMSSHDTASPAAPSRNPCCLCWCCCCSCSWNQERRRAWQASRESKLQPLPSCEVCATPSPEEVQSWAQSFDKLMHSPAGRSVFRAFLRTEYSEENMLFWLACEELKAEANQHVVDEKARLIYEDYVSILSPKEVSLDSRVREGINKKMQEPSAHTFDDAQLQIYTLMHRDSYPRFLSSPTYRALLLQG
# Method: (§1) We recently described a bead-based screen in which 2.5 × 10^6 different peptide sequences were prepared as a OBOC library. Fluorescently labeled RGS4 was used to probe the library for peptides that bind RGS4 [5]. […] Since the majority of those hit peptides could bind tightly to the RGS without disrupting GAP activity, they were also tested in the flow cytometry protein interaction assay (FCPIA) (Figure 1), which measures the interaction between RGS4 and Gαo. In this method we used a Luminex flow cytometer to detect the binding of Alexa Fluor 532-labeled Gαo to biotinylated RGS4 on avidin beads in the presence of AMF (AlCl3, MgCl2, NaF and GDP) to put the Gα subunit into a transition state-like conformation. Peptides were tested at 50 μM except where limited by solubility (Table 1).
# (§2) 5nd inhibited Gαo binding to a number of different RGS proteins (Figure 2). […] RGS19 and RGS7 are in the RZ and R7 families, respectively and show less inhibition by 5nd. Linear as well as bridged versions of peptide 5 were tested in the FCPIA since cyclization yields would most likely have been less then 100% in the synthesis of the library leaving some linear peptides present on each bead. […] This may be due to lack of structural rigidity necessary for the correct interaction of the peptide with the RGS protein or a role for chemical reactivity of the disulfide.
# (§3) Figure 2 Characterization of hit 5. […]
# [2] = target: T2, RGS4 C132A (Rattus norvegicus, UniProt P49799, C132A); test: FCPIA, RGS4 cysteine mutant C132A; format: binding; conditions: read-out: 5nd logIC50 (converted)
# T2 construct: made in house
# T2 sequence (P49799 52-205 C132A limits assumed): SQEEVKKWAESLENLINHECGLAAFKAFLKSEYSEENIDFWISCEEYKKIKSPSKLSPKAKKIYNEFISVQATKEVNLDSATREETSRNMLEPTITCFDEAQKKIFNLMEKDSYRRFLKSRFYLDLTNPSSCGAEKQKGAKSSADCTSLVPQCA
# Method: Figure 5 Dose curves of 5nd on various RGS4 cysteine mutants. Various concentrations of 5nd were tested for disruption of the RGS4-Gαo interaction for C95A (5 nM), or […], C71A (5nM) or C148A (5nM) (B), A95C in the -7C (5nM), or A132C in the -7C (5nM) (C), A71C in the -7C (5nM), or A148C in the -7C (5nM) (D) or the mutant with no cysteines in the domain (20 nM) or the C-terminus (20 nM) (E) in the FCPIA (mean ± S.E.M., n ≥ 3).
# Proteins were expressed, purified and labeled as described previously. The mutagenesis was done using the "QuickChange Multi Site-Directed Mutagenesis Kit" from Stratagene according to the manufacturer's protocol. The construct of RGS4 used in these studies is a maltose binding protein (MBP-) fusion protein of the RGS4 sequence from which the amphipathic N-terminal helix has been removed (i.e. MBP-RGS4Δ51N). For simplicity in the text, this will be referred to as RGS4. All other RGS proteins were human sequences and were used as Mpb fusions: RGS7 RGS domain (aa: 305–453), RGS8 full length, RGS16 full length, and RGS19ΔC11 (amino acids 1–209). To cleave RGS4Δ51N from the MBP-His6 construct for MS analysis, MBP-His6-RGS4Δ51N was treated with 15% MBP-His6-TEV protease S219V [11] for 22 hours at 4°C and purified over a Ni-NTA column.
# FCPIA was performed as previously published.
# [3] = target: T3, RGS7 (Homo sapiens, UniProt P49802); test: FCPIA, Gαo binding to RGS7; conditions: Figure 2
# T3 construct: RGS7 RGS domain (aa: 305–453); made in house
# T3 sequence (P49802 305-453): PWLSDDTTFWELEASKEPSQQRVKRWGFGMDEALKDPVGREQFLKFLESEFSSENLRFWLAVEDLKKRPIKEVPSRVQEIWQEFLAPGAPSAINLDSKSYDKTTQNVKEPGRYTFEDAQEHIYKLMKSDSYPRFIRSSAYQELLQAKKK
# Method: as §1, §2, §3
smiles,measurement,setting,value
"CC(C)C[C@@H]1NC(=O)CNC(=O)[C@H](CCCCN)NC(=O)[C@@H](NC(=O)[C@H](Cc2c[nH]c3ccccc23)NC(=O)[C@@H](N)Cc2ccc(O)cc2)CSSC[C@@H](C(=O)N[C@@H](CCCCN)C(N)=O)NC1=O [Peptide 5nd, Tyr-Trp-c [Cys-Lys-Gly-Leu-Cys]-Lys-NH2, S-S] (H-YWCKGLCK-NH2; disulfide 3-7)",IC50,"[1]; read-out: logIC50, RGS19 (converted)",~145 µM
same,IC50,"[1]; dose response, read-out: IC50, Gαo binding to RGS19",145 µM and ~145 µM
same,IC50,[2],138 µM
same,IC50,"[3]; read-out: logIC50, RGS7 (converted)",~174 µM
same,IC50,"[3]; dose response, read-out: IC50, Gαo binding to RGS7",175 µM and ~175 µM
